# In patent publication US10023484B2, “Use of peracetic acid/hydrogen peroxide and peroxide-reducing agents for treatment of drilling fluids, frac fluids, flowback water and disposal water” (Ecolab USA Inc., priority 2012, dated 2018):
# Assays:
# fracking water mixtures [1] = assay: Micro efficacy: POAA dosed for 30 ppm residual versus POAA pretreated with catalase (Example 8); assay type: cell-based
# Description: A micro efficacy comparison of POAA added at levels to target 30 ppm POAA residuals at 5 minutes versus POAA pretreated with catalase was conducted as set forth in Table 12.
# fracking water mixtures [2] = assay: Micro efficacy baseline in fracking water mixtures without catalase (Example 3); assay type: cell-based
# Description: The impact of water pretreatment with 500 ppm of the EnviroSan product (75 ppm POAA) on micro efficacy in various fracking water mixtures were evaluated. The example represents a baseline data set of various water treatment options according to the invention. Table 2 and FIG. 3 show the average log reduction in various slick water treatments with varying ppm PAA (without any catalase treatment or pretreatment), representing a baseline data set.
# [3] = tested on: Pseudomonas aeruginosa ATCC 15442; assay: Micro efficacy at 30 ppm POAA EnviroSan with/without catalase, with/without water pretreatment (Example 7); assay type: cell-based; details: no pretreatment, 30 ppm PAA
# Description: Additional micro efficacy performance was evaluated to confirm the improved micro efficacy observed in Example 6 when using increasing amounts of produced water with the dosing static initial concentrations of POAA (30 ppm or 40 ppm) with catalase. Improved micro efficacy with increased amounts of produced water present in a mixture is a highly counterintuitive result and was unexpected. Under normal conditions, it would be expected to have decreased micro efficacy as the amount of produced water (e.g. recycled) increases and the amount of POAA remains static as a result of the increased contamination found in produced water as opposed to fresh water sources. As a result, subsequent evaluation observed the activity of the water itself against a spiked culture of P. aeruginosa over a 1 hour exposure period to determine whether the produced water itself has an antimicrobial present.
# All water mixtures were treated with an initial concentration of 30 ppm POAA EnviroSan, both with and without the addition of catalase. The data set evaluates whether there is a significant difference in micro activity generated between treatments of EnviroSan alone vs. EnviroSan pre-reduced with catalase.
# All ratios of fracking water mixtures tested (100/0, 90/10, 80/20 & 70/30) were freshly mixed solutions, as well as solutions mixed and pretreated with 500 ppm EnviroSan product more than 1 hour before the start of the micro evaluation, in order to observe if a pretreatment step is of value for micro performance compared to those mixtures not pretreated. The test system (P. aeruginosa and natural water) described in Example 5 was again utilized. Water mixtures as outlined in Table 9 were provided (showing the percentage of 100 mL of each water sample type).
# The testing methods of Example 5 were utilized for the chemically treated water samples, differing only in the combination of the 10 mL inoculated water mixtures with appropriate volumes of the EnviroSan with or without catalase to achieve 30 ppm POAA residual to each test tube in timed intervals and mixed. The methods of Example 5 were employed to make the EnviroSan with catalase stock solutions. In comparison, for the water samples that were not chemically treated, 9.9 mL of test water mixture was dispensed into 2 individual test tubes. 0.10 mL of an approximate 10^8 CFU/mL culture of P. aeruginosa was added in timed intervals and mixed thoroughly. Then 1 mL samples were neutralized in 9 mL of 0.5% sodium thiosulfate, followed by serial dilution and enumeration after 2.5 minutes, 5 minutes and 60 minute exposure times.
# In addition, data for enumeration of water samples for antimicrobial activity against P. aeruginosa over 60 minutes exposure are also summarized in Table 10.
# [4] = Effect of catalase and treatment sequence on peracid stability in 80/20 water blends (Example 10); assay type: physicochemical; details: theoretical initial POAA 82 ppm
# Text: The effect of catalase on the peracid stability within treated waters was further evaluated. Water blends of 80/20 (80% fresh water/20% produced water) were employed to analyze the impact on various treatment sequences set forth in Table 14.
# Due to the efficacious results shown in FIG. 15, the same methods were used to further evaluate a pretreatment using a lower concentration of the catalase as shown in Table 15.
# [5] = Titration of POAA consumption in water mixtures (Example 6); assay type: physicochemical; details: 1 minute
# [6] = Pretreated, catalase CA 400 5.8 ppm
# [7] = Simult. Add, catalase CA 400 10 ppm
# [8] = Simult. Add, catalase CA 400 100 ppm
smiles,measurement,setting,value
"CC(=O)OO [POAA, peracetic acid]",Avg. Log10 Reduction,"fracking water mixtures [1]; 10% reuse H2O, 30 ppm PAA, Catalase, 2.5 minutes",5.29
same,Avg. Log10 Reduction,"fracking water mixtures [1]; 10% reuse H2O, 30 ppm PAA, Catalase, 5 minutes",5.96
same,Avg. Log10 Reduction,"fracking water mixtures [1]; 10% reuse H2O, 46 ppm PAA, NO Catalase, 2.5 minutes",4.32
same,Avg. Log10 Reduction,"fracking water mixtures [1]; 10% reuse H2O, 46 ppm PAA, NO Catalase, 5 minutes",4.72
same,Avg. Log10 Reduction,"fracking water mixtures [1]; 20% reuse H2O, 30 ppm PAA, Catalase, 2.5 minutes",5.73
same,Avg. Log10 Reduction,"fracking water mixtures [1]; 20% reuse H2O, 30 ppm PAA, Catalase, 5 minutes",6.36
same,Avg. Log10 Reduction,"fracking water mixtures [1]; 20% reuse H2O, 86 ppm PAA, NO Catalase, 2.5 minutes",4.57
same,Avg. Log10 Reduction,"fracking water mixtures [1]; 20% reuse H2O, 86 ppm PAA, NO Catalase, 5 minutes",4.64
same,Avg. Log10 Reduction,"fracking water mixtures [1]; 30% reuse H2O, 30 ppm PAA, Catalase, 2.5 minutes",5.30
same,Avg. Log10 Reduction,"fracking water mixtures [1]; 30% reuse H2O, 30 ppm PAA, Catalase, 5 minutes",5.98
same,Avg. Log10 Reduction,"fracking water mixtures [1]; 30% reuse H2O, 138 ppm PAA, NO Catalase, 2.5 minutes",4.12
same,Avg. Log10 Reduction,"fracking water mixtures [1]; 30% reuse H2O, 138 ppm PAA, NO Catalase, 5 minutes",5.00
same,Avg. Log10 Reduction,"fracking water mixtures [2]; 75 ppm PAA pretreatment, 10% reuse H2O, 29 ppm POAA, NO catalase, 2.5 minutes",6.45
same,Avg. Log10 Reduction,"fracking water mixtures [2]; 75 ppm PAA pretreatment, 10% reuse H2O, 29 ppm POAA, NO catalase, 5 minutes",6.71
same,Avg. Log10 Reduction,"fracking water mixtures [2]; 75 ppm PAA pretreatment, 20% reuse H2O, 47 ppm PAA, NO catalase, 2.5 minutes",6.42
same,Avg. Log10 Reduction,"fracking water mixtures [2]; 75 ppm PAA pretreatment, 20% reuse H2O, 47 ppm PAA, NO catalase, 5 minutes",6.55
same,Avg. Log10 Reduction,"fracking water mixtures [2]; 75 ppm PAA pretreatment, 30% reuse H2O, 86 ppm POAA, NO catalase, 2.5 minutes",6.47
same,Avg. Log10 Reduction,"fracking water mixtures [2]; 75 ppm PAA pretreatment, 30% reuse H2O, 86 ppm POAA, NO catalase, 5 minutes",6.41
same,Avg. Log10 Reduction,"fracking water mixtures [2]; no holding tank pretreatment, 0% reuse H2O, 22 ppm POAA, 2.5 minutes",5.53
same,Avg. Log10 Reduction,"fracking water mixtures [2]; no holding tank pretreatment, 0% reuse H2O, 22 ppm POAA, 5 minutes",5.75
same,Avg. Log10 Reduction,"fracking water mixtures [2]; no pretreatment, 10% reuse H2O, 36 ppm POAA, 2.5 minutes",4.32
same,Avg. Log10 Reduction,"fracking water mixtures [2]; no pretreatment, 10% reuse H2O, 36 ppm POAA, 5 minutes",4.72
same,Avg. Log10 Reduction,"fracking water mixtures [2]; no pretreatment, 20% reuse H2O, 86 ppm POAA, 2.5 minutes",4.57
same,Avg. Log10 Reduction,"fracking water mixtures [2]; no pretreatment, 20% reuse H2O, 86 ppm POAA, 5 minutes",4.64
same,Avg. Log10 Reduction,"fracking water mixtures [2]; no pretreatment, 30% reuse H2O, 138 ppm POAA, 2.5 minutes",4.12
same,Avg. Log10 Reduction,"fracking water mixtures [2]; no pretreatment, 30% reuse H2O, 138 ppm POAA, 5 minutes",5.00
same,Avg. Log10 Reduction,"[3]; 0% reuse H2O, Catalase, 2.5 minutes",4.62
same,Avg. Log10 Reduction,"[3]; 0% reuse H2O, Catalase, 5 minutes",6.22
same,Avg. Log10 Reduction,"[3]; 0% reuse H2O, NO Catalase, 2.5 minutes",4.64
same,Avg. Log10 Reduction,"[3]; 0% reuse H2O, NO Catalase, 5 minutes",6.32
same,Avg. Log10 Reduction,"[3]; 10% reuse H2O, Catalase, 2.5 minutes",5.29
same,Avg. Log10 Reduction,"[3]; 10% reuse H2O, Catalase, 5 minutes",5.96
same,Avg. Log10 Reduction,"[3]; 10% reuse H2O, NO Catalase, 2.5 minutes",3.09
same,Avg. Log10 Reduction,"[3]; 10% reuse H2O, NO Catalase, 5 minutes",3.91
same,Avg. Log10 Reduction,"[3]; 20% reuse H2O, Catalase, 2.5 minutes",5.73
same,Avg. Log10 Reduction,"[3]; 20% reuse H2O, Catalase, 5 minutes",6.36
same,Avg. Log10 Reduction,"[3]; 20% reuse H2O, NO Catalase, 2.5 minutes",2.19
same,Avg. Log10 Reduction,"[3]; 20% reuse H2O, NO Catalase, 5 minutes",2.38
same,Avg. Log10 Reduction,"[3]; 30% reuse H2O, Catalase, 2.5 minutes",5.30
same,Avg. Log10 Reduction,"[3]; 30% reuse H2O, Catalase, 5 minutes",5.98
same,Avg. Log10 Reduction,"[3]; 30% reuse H2O, NO Catalase, 2.5 minutes",1.88
same,Avg. Log10 Reduction,"[3]; 30% reuse H2O, NO Catalase, 5 minutes",1.93
same,POAA Meas'd. at 1 min.,"[4]; NA, catalase 0 ppm",56 ppm
same,POAA Meas'd. at 4 min.,"[4]; NA, catalase 0 ppm",31 ppm
same,POAA Meas'd. at 5 min.,"[4]; NA, catalase 0 ppm",23 ppm
same,POAA Meas'd. at 6 min.,"[4]; NA, catalase 0 ppm",17 ppm
same,POAA Meas'd. at 1 min.,[4]; [6],76 ppm
same,POAA Meas'd. at 4 min.,[4]; [6],75 ppm
same,POAA Meas'd. at 5 min.,[4]; [6],75 ppm
same,POAA Meas'd. at 6 min.,[4]; [6],75 ppm
same,POAA Meas'd. at 1 min.,[4]; [7],63 ppm
same,POAA Meas'd. at 4 min.,[4]; [7],34 ppm
same,POAA Meas'd. at 5 min.,[4]; [7],31 ppm
same,POAA Meas'd. at 6 min.,[4]; [7],26 ppm
same,POAA Meas'd. at 1 min.,[4]; [8],66 ppm
same,POAA Meas'd. at 4 min.,[4]; [8],61 ppm
same,POAA Meas'd. at 5 min.,[4]; [8],65 ppm
same,POAA Meas'd. at 6 min.,[4]; [8],58 ppm
same,Actual Titrated Concentration (ppm POAA),"[5]; 70% Fresh/30% Produced, desired 30 ppm POAA",7 ppm
same,Actual Titrated Concentration (ppm POAA),"[5]; 70% Fresh/30% Produced, desired 40 ppm POAA",12 ppm
same,Actual Titrated Concentration (ppm POAA),"[5]; 80% Fresh/20% Produced, desired 30 ppm POAA",13 ppm
same,Actual Titrated Concentration (ppm POAA),"[5]; 80% Fresh/20% Produced, desired 40 ppm POAA",21 ppm
same,Actual Titrated Concentration (ppm POAA),"[5]; 90% Fresh/10% Produced, desired 30 ppm POAA",21 ppm
same,Actual Titrated Concentration (ppm POAA),"[5]; 90% Fresh/10% Produced, desired 40 ppm POAA",30 ppm
